Reference: patent EP4755888A1 (ILAb Co., Ltd., priority 2023, dated 2025)

Biological target: PD-1/PD-L1 (Homo sapiens, UniProt Q9NZQ7)
Assay: TR-FRET PD-1/PD-L1 binding inhibition at the molecular level (free proteins)
Details: Tag1-PD-L1 and Tag2-PD-1 proteins, twelve concentrations from 200 nM, 2 hours at room temperature, read-out: FRET assay (IC50)
Procedure, shortened: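 HTRF read-out at 665/620 nm after 2 h at room temperature. Detection used anti-Tag1 Eu cryptate plus anti-Tag2 XL665 antibodies. Tagged PD-L1 and PD-1 proteins were pre-mixed with compound across twelve […] 1:2 dilutions starting at 200 nM.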

PD-1/PD-L1, sequence (Q9NZQ7 19-238 limits assumed): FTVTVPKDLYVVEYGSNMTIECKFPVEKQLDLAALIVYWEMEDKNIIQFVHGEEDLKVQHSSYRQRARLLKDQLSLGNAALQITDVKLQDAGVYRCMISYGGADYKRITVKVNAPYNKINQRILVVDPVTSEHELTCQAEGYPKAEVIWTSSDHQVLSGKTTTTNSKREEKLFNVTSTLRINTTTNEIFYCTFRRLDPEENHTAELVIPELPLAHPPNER

SMILES | IC50 [µM]
Cc1c(NC(=O)c2cc3n(n2)CCCC3O)cccc1-c1cccc(Nc2nc(C(F)F)nc3cc(CN4CC[C@@H](O)C4)cnc23)c1C (stereo partly drawn) [Compound 129, N-(3'-((2-(difluoromethyl)-7-(((R)-3-hydroxypyrrolidin-1-yl)methyl)pyrido[3,2-d]pyrimidin-4-yl)amino)-2,2'-dimethyl-[1,1'-biphenyl]-3-yl)-4-hydroxy-4,5,6,7-tetrahydropyrazolo[1,5-a]pyridine-2-carboxamide] | < 0.01
CC(=O)NCCNC1CCCn2nc(C(=O)Nc3cccc(-c4cccc(Nc5nc(C(F)F)nc6cc(CN7CC[C@@H](O)C7)cnc56)c4C)c3C)cc21 (stereo partly drawn) [Compound 130, 4-((2-acetamidoethyl)amino)-N-(3'-((2-(difluoromethyl)-7-(((R)-3-hydroxypyrrolidin-1-yl)methyl)pyrido[3,2-d]pyrimidin-4-yl)amino)-2,2'-dimethyl-[1,1'-biphenyl]-3-yl)-4,5,6,7-tetrahydropyrazolo[1,5-a]pyridine-2-carboxamide] | 0.01 to 0.1
Cc1c(NC(=O)c2cc3n(n2)CCCC3N2CC[C@@H](O)C2)cccc1-c1cccc(Nc2nc(C(F)F)nc3cc(CN4CC[C@@H](O)C4)cnc23)c1C (stereo partly drawn) [Compound 131, N-(3'-((2-(difluoromethyl)-7-(((R)-3-hydroxypyrrolidin-1-yl)methyl)pyrido[3,2-d]pyrimidin-4-yl)amino)-2,2'-dimethyl-[1,1'-biphenyl]-3-yl)-4-((R)-3-hydroxypyrrolidin-1-yl)-4,5,6,7-tetrahydropyrazolo[1,5-a]pyridine-2-carboxamide] | < 0.01
Cc1c(NC(=O)c2cc3n(n2)CCCC3NCCO)cccc1-c1cccc(Nc2nc(C(F)F)nc3cc(CN4CC[C@@H](O)C4)cnc23)c1C (stereo partly drawn) [Compound 132, N-(3'-((2-(difluoromethyl)-7-(((R)-3-hydroxypyrrolidin-1-yl)methyl)pyrido[3,2-d]pyrimidin-4-yl)amino)-2,2'-dimethyl-[1,1'-biphenyl]-3-yl)-4-((2-hydroxyethyl)amino)-4,5,6,7-tetrahydropyrazolo[1,5-a]pyridine-2-carboxamide] | < 0.01
Cc1c(NC(=O)c2cc3n(n2)CCCC3N2CC[C@@H](C(=O)O)C2)cccc1-c1cccc(Nc2nc(C(F)F)nc3cc(CN4CC[C@@H](O)C4)cnc23)c1C (stereo partly drawn) [Compound 133, (3R)-1-(2-((3'-((2-(difluoromethyl)-7-(((R)-3-hydroxypyrrolidin-1-yl)methyl)pyrido[3,2-d]pyrimidin-4-yl)amino)-2,2'-dimethyl-[1,1'-biphenyl]-3-yl)carbamoyl)-4,5,6,7-tetrahydropyrazolo[1,5-a]pyridin-4-yl)pyrrolidine-3-carboxylic acid] | < 0.01
Cc1c(NC(=O)c2cc3n(n2)CCCC3NCC(=O)O)cccc1-c1cccc(Nc2nc(C(F)F)nc3cc(CN4CC[C@@H](O)C4)cnc23)c1C (stereo partly drawn) [Compound 134, 2-((2-((3'-((2-(difluoromethyl)-7-(((R)-3-hydroxypyrrolidin-1-yl)methyl)pyrido[3,2-d]pyrimidin-4-yl)amino)-2,2'-dimethyl-[1,1'-biphenyl]-3-yl)carbamoyl)-4,5,6,7-tetrahydropyrazolo[1,5-a]pyridin-4-yl)amino)acetic acid] | 0.01 to 0.1
Cc1c(NC(=O)c2cc3n(n2)CCCC3N2CCC(O)CC2)cccc1-c1cccc(Nc2nc(C(F)F)nc3cc(CN4CC[C@@H](O)C4)cnc23)c1C (stereo partly drawn) [Compound 135, N-(3'-((2-(difluoromethyl)-7-(((R)-3-hydroxypyrrolidin-1-yl)methyl)pyrido[3,2-d]pyrimidin-4-yl)amino)-2,2'-dimethyl-[1,1'-biphenyl]-3-yl)-4-(4-hydroxypiperidin-1-yl)-4,5,6,7-tetrahydropyrazolo[1,5-a]pyridine-2-carboxamide] | 0.01 to 0.1
Cc1c(NC(=O)c2cc3n(n2)CCCC3N2CCC(C(=O)O)CC2)cccc1-c1cccc(Nc2nc(C(F)F)nc3cc(CN4CC[C@@H](O)C4)cnc23)c1C (stereo partly drawn) [Compound 136, 1-(2-((3'-((2-(difluoromethyl)-7-(((R)-3-hydroxypyrrolidin-1-yl)methyl)pyrido[3,2-d]pyrimidin-4-yl)amino)-2,2'-dimethyl-[1,1'-biphenyl]-3-yl)carbamoyl)-4,5,6,7-tetrahydropyrazolo[1,5-a]pyridin-4-yl)piperidine-4-carboxylic acid] | < 0.01
Cc1c(NC(=O)c2cc3n(n2)CCCC3NC(C)(C)C(=O)O)cccc1-c1cccc(Nc2nc(C(F)F)nc3cc(CN4CC[C@@H](O)C4)cnc23)c1C (stereo partly drawn) [Compound 137, 2-((2-((3'-((2-(difluoromethyl)-7-(((R)-3-hydroxypyrrolidin-1-yl)methyl)pyrido[3,2-d]pyrimidin-4-yl)amino)-2,2'-dimethyl-[1,1'-biphenyl]-3-yl)carbamoyl)-4,5,6,7-tetrahydropyrazolo[1,5-a]pyridin-4-yl)amino)-2-methylpropanoic acid] | < 0.01
O=C(Nc1cccc(-c2cccc(Nc3nc(C(F)F)nc4cc(CN5CC[C@@H](O)C5)cnc34)c2Cl)c1Cl)c1cc2n(n1)CCCC2O (stereo partly drawn) [Compound 138, N-(2,2'-dichloro-3'-((2-(difluoromethyl)-7-(((R)-3-hydroxypyrrolidin-1-yl)methyl)pyrido[3,2-d]pyrimidin-4-yl)amino)-[1,1'-biphenyl]-3-yl)-4-hydroxy-4,5,6,7-tetrahydropyrazolo[1,5-a]pyridine-2-carboxamide] | 0.01 to 0.1
CC(=O)NCCNC1CCCn2nc(C(=O)Nc3cccc(-c4cccc(Nc5nc(C(F)F)nc6cc(CN7CC[C@@H](O)C7)cnc56)c4Cl)c3Cl)cc21 (stereo partly drawn) [Compound 139, 4-((2-acetamidoethyl)amino)-N-(2,2'-dichloro-3'-((2-(difluoromethyl)-7-(((R)-3-hydroxypyrrolidin-1-yl)methyl)pyrido[3,2-d]pyrimidin-4-yl)amino)-[1,1'-biphenyl]-3-yl)-4,5,6,7-tetrahydropyrazolo[1,5-a]pyridine-2-carboxamide] | 0.01 to 0.1
O=C(Nc1cccc(-c2cccc(Nc3nc(C(F)F)nc4cc(CN5CC[C@@H](O)C5)cnc34)c2Cl)c1Cl)c1cc2n(n1)CCCC2N1CC[C@@H](O)C1 (stereo partly drawn) [Compound 140, N-(2,2'-dichloro-3'-((2-(difluoromethyl)-7-(((R)-3-hydroxypyrrolidin-1-yl)methyl)pyrido[3,2-d]pyrimidin-4-yl)amino)-[1,1'-biphenyl]-3-yl)-4-((R)-3-hydroxypyrrolidin-1-yl)-4,5,6,7-tetrahydropyrazolo[1,5-a]pyridine-2-carboxamide] | 0.01 to 0.1

Other lines, results leading:

IC50 [µM] | SMILES
0.01 to 0.1 | O=C(Nc1cccc(-c2cccc(Nc3nc(C(F)F)nc4cc(CN5CC[C@@H](O)C5)cnc34)c2Cl)c1Cl)c1cc2n(n1)CCCC2NCCO (stereo partly drawn) [Compound 141, N-(2,2'-dichloro-3'-((2-(difluoromethyl)-7-(((R)-3-hydroxypyrrolidin-1-yl)methyl)pyrido[3,2-d]pyrimidin-4-yl)amino)-[1,1'-biphenyl]-3-yl)-4-((2-hydroxyethyl)amino)-4,5,6,7-tetrahydropyrazolo[1,5-a]pyridine-2-carboxamide]
< 0.01 | O=C(Nc1cccc(-c2cccc(Nc3nc(C(F)F)nc4cc(CN5CC[C@@H](O)C5)cnc34)c2Cl)c1Cl)c1cc2n(n1)CCCC2N1CC[C@@H](C(=O)O)C1 (stereo partly drawn) [Compound 142, (3R)-1-(2-((2,2'-dichloro-3'-((2-(difluoromethyl)-7-(((R)-3-hydroxypyrrolidin-1-yl)methyl)pyrido[3,2-d]pyrimidin-4-yl)amino)-[1,1'-biphenyl]-3-yl)carbamoyl)-4,5,6,7-tetrahydropyrazolo[1,5-a]pyridin-4-yl)pyrrolidine-3-carboxylic acid]
< 0.01 | O=C(O)CNC1CCCn2nc(C(=O)Nc3cccc(-c4cccc(Nc5nc(C(F)F)nc6cc(CN7CC[C@@H](O)C7)cnc56)c4Cl)c3Cl)cc21 (stereo partly drawn) [Compound 143, 2-((2-((2,2'-dichloro-3'-((2-(difluoromethyl)-7-(((R)-3-hydroxypyrrolidin-1-yl)methyl)pyrido[3,2-d]pyrimidin-4-yl)amino)-[1,1'-biphenyl]-3-yl)carbamoyl)-4,5,6,7-tetrahydropyrazolo[1,5-a]pyridin-4-yl)amino)acetic acid]
0.01 to 0.1 | O=C(Nc1cccc(-c2cccc(Nc3nc(C(F)F)nc4cc(CN5CC[C@@H](O)C5)cnc34)c2Cl)c1Cl)c1cc2n(n1)CCCC2N1CCC(O)CC1 (stereo partly drawn) [Compound 144, N-(2,2'-dichloro-3'-((2-(difluoromethyl)-7-(((R)-3-hydroxypyrrolidin-1-yl)methyl)pyrido[3,2-d]pyrimidin-4-yl)amino)-[1,1'-biphenyl]-3-yl)-4-(4-hydroxypiperidin-1-yl)-4,5,6,7-tetrahydropyrazolo[1,5-a]pyridine-2-carboxamide]
< 0.01 | O=C(Nc1cccc(-c2cccc(Nc3nc(C(F)F)nc4cc(CN5CC[C@@H](O)C5)cnc34)c2Cl)c1Cl)c1cc2n(n1)CCCC2N1CCC(C(=O)O)CC1 (stereo partly drawn) [Compound 145, 1-(2-((2,2'-dichloro-3'-((2-(difluoromethyl)-7-({(R)-3-hydroxypyrrolidin-1-yl)methyl)pyrido[3,2-d]pyrimidin-4-yl)amino)-[1,1'-biphenyl]-3-yl)carbamoyl)-4,5,6,7-tetrahydropyrazolo[1,5-a]pyridin-4-yl)piperidine-4-carboxylic acid]
< 0.01 | CC(C)(NC1CCCn2nc(C(=O)Nc3cccc(-c4cccc(Nc5nc(C(F)F)nc6cc(CN7CC[C@@H](O)C7)cnc56)c4Cl)c3Cl)cc21)C(=O)O (stereo partly drawn) [Compound 146, 2-((2-((2,2'-dichloro-3'-((2-(difluoromethyl)-7-(((R)-3-hydroxypyrrolidin-1-yl)methyl)pyrido[3,2-d]pyrimidin-4-yl)amino)-[1,1'-biphenyl]-3-yl)carbamoyl)-4,5,6,7-tetrahydropyrazolo[1,5-a]pyridin-4-yl)amino)-2-methylpropanoic acid]
< 0.01 | Cc1c(NC(=O)c2cc3n(n2)CCCC3NCCO)cccc1-c1cccc(NC(=O)c2nc3c(s2)CN(C)CC3)c1C (stereo not shown) [Compound 147, N-(3'-(4-((2-hydroxyethyl)amino)-4,5,6,7-tetrahydropyrazolo[1,5-a]pyridine-2-carboxamido)-2,2'-dimethyl-[1,1'-biphenyl]-3-yl)-5-methyl-4,5,6,7-tetrahydrothiazolo[5,4-c]pyridine-2-carboxamide]
